In patent US11505592B2, “Diagnosis and therapy of multiple sclerosis” (PRINDEX S.R.L., priority 2015, dated 2022):
Bridges are numbered along the chain shown (N, C = ends). Where no end group is shown, it is not given here. dibromoxylene = α,α'-dibromoxylene, used to cyclize the peptide by reaction with its two cysteines

Key:
MS sera = experiment: PEPSCAN-based ELISA, binding of MS sera to library peptides; set-up: species or system human; conditions: ELISA binding value, MS sera n = 9
From the text: (§1) The linear and CLIPS peptides are synthesized based on the amino acid sequence of the target protein using standard Fmoc-chemistry and deprotected using […] with scavengers. The constrained peptides are synthesized on chemical scaffolds in order to reconstruct conformational epitopes, using Chemically Linked Peptides on Scaffolds (CLIPS) technology (Timmerman et al. (2007). For example, the single looped peptides are synthesized containing a dicysteine, which was cyclized by treating with alpha, alpha′-dibromoxylene and the size of the loop is varied by introducing cysteine residues at variable spacing. If other cysteines besides the newly introduced cysteines are present, they are replaced by alanine. The side-chains of the multiple cysteines in the peptides are coupled to CLIPS templates by reacting onto credit-card format polypropylene PEPSCAN cards (455 peptide formats/card) with a 0.5 mM solution of CLIPS template such as 1,3-bis (bromomethyl) benzene in ammonium bicarbonate (20 mM, pH 7.9)/acetonitrile (1:1(v/v)). The cards are gently shaken in the solution for 30 to 60 minutes while completely covered in solution. Finally, the cards are washed extensively with excess of H2O and sonicated in distrupt-buffer containing 1 percent SDS/0.1 percent beta-mercaptoethanol in PBS (pH 7.2) at 70° C. for 30 minutes, followed by sonication in H2O for another 45 minutes.
(§2) The binding of antibody to each peptide is tested in a PEPSCAN-based ELISA. The 455-well credit card format polypropylene cards containing the covalently linked peptides are incubated with primary antibody solution for example consisting of 1/1000 diluted serum in blocking solution, for example 4% horse serum, 5% ovalbumin (w/v) in PBS/1% Tween. After washing, the peptides are incubated with a 1/1000 dilution of antibody peroxidase conjugate for one hour at 25° C. After washing, the peroxidase substrate 2,2′-azino-di-3-ethylbenzthiazoline sulfonate (ABTS) and 2 microlitres of 3 percent H2O2 are added. After one hour, the color development are measured. The color development are quantified with a charge coupled device (CCD)-camera and an image processing system (Slootstra et al., 1996).
(§3) The raw data are optical values obtained by a CCD-camera calibrated to export absorption values compatible with a standard 96-well plate ELISA-reader. First the CCD-camera makes a picture of the card before peroxidase coloring and then again a picture after the peroxidase coloring. These two pictures are substracted from each other yielding a binding value for each peptide.
(§4) All peptides have been synthesized in a peptide array format and the binding of 20 different sera to all peptide libraries were measured in an ELISA based set up following the procedure described in detail in the method section “Peptide synthesis and screening assays”. In particular 2 sets of experiments were performed on the 2 libraries by using 2 different dilutions of the human patients sera. In the first set of experiment the 20 sera were used at 1:2500 dilutions, while in the second experiment the dilution of the sera was 1:1000. The binding of the different sera to all peptides was quantified and analyzed in detail (Tables 1 and 2, FIGS. 15A, B, C, D and […]

CTRL sera = experiment: PEPSCAN-based ELISA, binding of control (CTRL) sera to library peptides; set-up: species or system human; conditions: ELISA binding value, CTRLs n = 10
From the text: as §1, §2, §3, §4

Sequence | MEAN MS (MS sera; NOX2 library) | MEAN CTRL (CTRL sera; NOX2 library) | MEAN MS (MS sera; 5HT2A receptor library) | MEAN CTRL (CTRL sera; 5HT2A receptor library)
CAVHNITVSEQKISEWCQNESYLNFARKRIKNC [SEQ ID NO: 126] | 685.667 | 370.15 |  | 
CAVHNITVSEQKISEWCSYLNFARKRIKNPEGC [SEQ ID NO: 133] | 648.556 | 375.55 |  | 
CAVHNITVSEQKISEWCVSEQKISEWGKIKESC [SEQ ID NO: 123] | 697.000 | 392.5 |  | 
CDSKVFKEGSSLLACKESSNEDVIGALLC [Peptide 16] |  |  | 604.03 | 347.50
CDSKVFKEGSSLLACMDILSEENTSLSSC [Peptide 28] |  |  | 429.00 | 236.60
CDSKVFKEGSSLLACSENRTNLSSEGSLC [Peptide 46] |  |  | 512.94 | 296.70
CDSKVFKEGSSLLACSGEANTSDAFNWTC [Peptide 37] |  |  | 623.06 | 333.75
CENTSLSSTTNSLMCMDILSEENTSLSSC [Peptide 17] |  |  | 316.22 | 175.00
CERIVRGQTAESLAVHCQNESYLNFARKRIKNC [SEQ ID NO: 75] | 833.444 | 455.55 |  | 
CESLAVHNITVSEQKICGDRQNESYLNFARKRC [SEQ ID NO: 136] | 730.278 | 409.15 |  | 
CESLAVHNITVSEQKICQNESYLNFARKRIKNC [SEQ ID NO: 74] | 689.556 | 354.9 |  | 
CESLAVHNITVSEQKICSYLNFARKRIKNPEGC [SEQ ID NO: 79] | 639.611 | 357.1 |  | 
CEWSVNARVNNSDPYSCPYSVALSELGDRQNEC [SEQ ID NO: 72] | 428.167 | 225.5 |  | 
CEWSVNARVNNSDPYSCQNESYLNFARKRIKNC [SEQ ID NO: 103] | 714.944 | 372.8 |  | 
CEWSVNARVNNSDPYSCVSEQKISEWGKIKESC [SEQ ID NO: 155] | 760.083 | 433.775 |  | 
CFNVEWSVNARVNNSDCGDRQNESYLNFARKRC [SEQ ID NO: 129] | 792.889 | 423.15 |  | 
CFNVEWSVNARVNNSDCVSEQKISEWGKIKESC [SEQ ID NO: 141] | 784.944 | 447.325 |  | 
CFNWTVDSENRTNLCMDILSEENTSLSSC [Peptide 30] |  |  | 312.00 | 174.90
CGDRQNESYLNFARKRCGDRQNESYLNFARKRC [SEQ ID NO: 85] | 775.500 | 404.05 |  | 

Sequence | MEAN MS (MS sera; NOX2 library) | MEAN CTRL (CTRL sera; NOX2 library) | MEAN MS (MS sera; 5HT2A receptor library) | MEAN CTRL (CTRL sera; 5HT2A receptor library)
CGDRQNESYLNFARKRCQNESYLNFARKRIKNC [SEQ ID NO: 70] | 831.278 | 412.7 |  | 
CGDRQNESYLNFARKRCSYLNFARKRIKNPEGC [SEQ ID NO: 131] | 730.222 | 401.95 |  | 
CGDRQNESYLNFARKRCVSEQKISEWGKIKESC [SEQ ID NO: 152] | 805.278 | 461.6 |  | 
CHGAERIVRGQTAESLCNFARKRIKNPEGGLYC [SEQ ID NO: 89] | 733.889 | 404.6 |  | 
CHGAERIVRGQTAESLCQKISEWGKIKESPIPC [SEQ ID NO: 101] | 734.917 | 407.625 |  | 
CHGAERIVRGQTAESLCQNESYLNFARKRIKNC [SEQ ID NO: 73] | 748.111 | 407.2 |  | 
CHGAERIVRGQTAESLCSYLNFARKRIKNPEGC [SEQ ID NO: 82] | 755.722 | 417.5 |  | 
CITVSEQKISEAAKIKC (linker 1-17 via dibromoxylene (inferred)) [SEQ ID NO: 147] | 703.000 | 383.25 |  | 
CKISEWGKIKC [SEQ ID NO: 108] | 672.833 | 367.95 |  | 
CLGDRQNESYLAAARKC [SEQ ID NO: 145] | 698.944 | 402.85 |  | 
CLNFARKRIKC [SEQ ID NO: 87] | 713.333 | 374.7 |  | 
CLNFARKRIKNAAGGLC [SEQ ID NO: 92] | 691.444 | 367 |  | 
CLQDDSKVFKEGSSCKESSNEDVIGALLC [Peptide 48] |  |  | 632.28 | 373.15
CLQDDSKVFKEGSSCMDILSEENTSLSSC [Peptide 7] |  |  | 434.67 | 233.80
CLSEENTSLSSTTNCMDILSEENTSLSSC [Peptide 39] |  |  | 303.50 | 184.40
CLSPSSLSLLHLQECMDILSEENTSLSSC [Peptide 10] |  |  | 305.00 | 183.45
CLSPSSLSLLHLQECTVDSENRTNLSSEC [Peptide 27] |  |  | 427.89 | 263.00
CLSSEGSLSPSSLSCMDILSEENTSLSSC [Peptide 26] |  |  | 320.72 | 188.85
CLTILYGYRWPAASKLC [Peptide 41] |  |  | 782.33 | 449.80

Sequence | MEAN MS (MS sera; NOX2 library) | MEAN CTRL (CTRL sera; NOX2 library) | MEAN MS (MS sera; 5HT2A receptor library) | MEAN CTRL (CTRL sera; 5HT2A receptor library)
CLTILYGYRWPLPSCKESSNEDVIGALLC [Peptide 12] |  |  | 629.14 | 350.93
CLTILYGYRWPLPSCLYGYRWPLPSKLSC [Peptide 40] |  |  | 879.72 | 508.45
CLTILYGYRWPLPSCMDILSEENTSLSSC [Peptide 2] |  |  | 421.56 | 228.85
CLTILYGYRWPLPSKLC [Peptide 35] |  |  | 792.94 | 475.00
CLYGYRWPLPSKLSCKESSNEDVIGALLC [Peptide 20] |  |  | 689.03 | 390.93
CLYGYRWPLPSKLSCMDILSEENTSLSSC [Peptide 4] |  |  | 449.78 | 246.80
CLYGYRWPLPSKLSCSDAFNWTVDSENRC [Peptide 36] |  |  | 511.11 | 298.55
CLYGYRWPLPSKLSCSGEANTSDAFNWTC [Peptide 43] |  |  | 649.67 | 344.80
CLYGYRWPLPSKLSCYSNDFNSGEANTSC [Peptide 32] |  |  | 555.67 | 288.50
CMDILSEENTSLSSCMQLNDDTRLYSNDC [Peptide 21] |  |  | 392.28 | 223.85
CMDILSEENTSLSSCSKESSNEDVIGALC [Peptide 44] |  |  | 432.33 | 266.55
CMQLNDDTRLYSNDCMDILSEENTSLSSC [Peptide 9] |  |  | 379.67 | 212.40
CMQLNDDTRLYSNDCSGEANTSDAFNWTC [Peptide 15] |  |  | 497.78 | 257.25
CNDDTRLYSNDFNSCMDILSEENTSLSSC [Peptide 24] |  |  | 350.67 | 196.45
CNESYLNFARKAAKNPC [SEQ ID NO: 86] | 702.222 | 411.15 |  | 
CNFARKRIKNC [SEQ ID NO: 60] | 748.389 | 374.6 |  | 
CNFARKRIKNPEGGLYCGDRQNESYLNFARKRC [SEQ ID NO: 117] | 800.500 | 425.15 |  | 
CNFARKRIKNPEGGLYCQNESYLNFARKRIKNC [SEQ ID NO: 65] | 801.056 | 410.85 |  | 
CNFARKRIKNPEGGLYCSLAVHNITVSEQKISC [SEQ ID NO: 106] | 599.000 | 330.8 |  | 
